Columns and labels:
KYSE-30 = assay: Antiproliferative activity against human KYSE-30 cells assessed as inhibition of cell growth incubated for 48 hrs by MTT assay; type: functional, cell-based; conditions: KYSE-30, 48 h
MGC-803 [1] = assay: Antiproliferative activity against human MGC-803 cells assessed as inhibition of cell growth incubated for 48 hrs by MTT assay; type: functional, cell-based; conditions: MGC-803, 48 h
HCT-116 = assay: Antiproliferative activity against human HCT-116 cells assessed as inhibition of cell growth incubated for 48 hrs by MTT assay; type: functional, cell-based; conditions: HCT-116, 48 h
[2] = Toxicity in BALB/c-nude mouse xenografted with human MGC-803 cells assessed as change in body weight at 30 mg/kg/day, ip administered for 18 days; type: organism-based; conditions: in vivo, 432 h, time 18 day
[3] = Toxicity in BALB/c-nude mouse xenografted with human MGC-803 cells assessed as abnormal behaviour at 30 mg/kg/day, ip administered for 18 days; type: organism-based; conditions: in vivo, 432 h, time 18 day
MGC-803 [4] = assay: Antitumor activity against human MGC-803 cells xenografted in BALB/c-nude mouse assessed as tumor growth inhibition at 30 mg/kg/day, ip administered for 18 days relative to control; type: functional; conditions: MGC-803, 432 h, time 18 day, read-out: TGI
MGC-803 [5] = assay: Antitumor activity against human MGC-803 cells xenografted in BALB/c-nude mouse assessed as tumor growth rate at 30 mg/kg/day, ip administered for 18 days relative to control; type: functional; conditions: time 18 day
MGC-803 [6] = assay: Antitumor activity against human MGC-803 cells xenografted in BALB/c-nude mouse assessed as tumor weight at 30 mg/kg/day, ip administered for 18 days (reference value: 0.656 g); type: functional; conditions: time 18 day

SMILES	IC50 (KYSE-30) [nM]	IC50 (MGC-803 [1]) [nM]	IC50 (HCT-116) [nM]	Activity [2]	Activity [3]	inhibition in vivo at 30 mg/kg/day (MGC-803 [4]) [%]	Activity (MGC-803 [5]) [%]	Activity (MGC-803 [6]) [g]
O=c1cc(N2CCc3ccccc32)c2ccccc2o1	2180	1290	2980	–	–	–	–	–
COc1ccc2c(c1)CCN2c1cc(=O)oc2ccccc12	150	120	160	–	–	–	–	–
O=c1cc(N2CCCc3cc(O)ccc32)c2ccccc2o1	870	880	910	–	–	–	–	–
COc1ccc2c(c1)NC(=O)CN2c1cc(=O)oc2ccccc12	34	12	38	–	–	–	–	–
O=C(c1cc2ccccc2oc1=O)N1CCCc2cc(Cl)ccc21	13200	9990	11900	–	–	–	–	–
CN1CCN(c2cc(=O)oc3ccccc23)CC1	> 20000	> 20000	> 20000	–	–	–	–	–
O=c1cc(N2CCCC2)c2ccccc2o1	> 20000	> 20000	> 20000	–	–	–	–	–
COC1CCN(c2cc(=O)oc3ccccc23)CC1	> 20000	> 20000	> 20000	–	–	–	–	–
COc1ccc(N2CCN(c3cc(=O)oc4ccccc34)CC2)cc1	> 20000	18100	18700	–	–	–	–	–
COc1ccc(/C=C\c2cc(OC)c(OC)c(OC)c2)cc1O [COMBRETASTATIN A4]	–	–	–	Non-Toxic	Non-Toxic	58.5	38	0.272
CC1CCN(c2cc(=O)oc3ccccc23)CC1	> 20000	> 20000	> 20000	–	–	–	–	–
COc1ccc2c(c1)CCN2C(=O)c1cc2ccccc2oc1=O	9080	7410	9440	–	–	–	–	–
COc1cc2c(c(OC)c1OC)-c1ccc(OC)c(=O)cc1[C@@H](NC(C)=O)CC2 [COLCHICINE]	68	41	55	–	–	–	–	–
Cc1ccc2c(c1)CCN2c1cc(=O)oc2ccccc12	1970	2090	2280	–	–	–	–	–
Cc1ccc2c(c1)CCCN2c1cc(=O)oc2ccccc12	400	420	450	–	–	–	–	–
O=c1cc(N2CCOCC2)c2ccccc2o1	> 20000	> 20000	> 20000	–	–	–	–	–
COc1ccc2c(c1)CCCN2C(=O)c1cc2ccccc2oc1=O	7190	4140	5580	–	–	–	–	–
O=c1cc(N2CCCc3ccccc32)c2ccccc2o1	680	670	730	–	–	–	–	–
O=c1cc(N2CCCc3cc(Br)ccc32)c2ccccc2o1	1520	1190	1470	–	–	–	–	–
O=C(c1cc2ccccc2oc1=O)N1CCc2cc(Br)ccc21	17100	13100	14200	–	–	–	–	–

From ChEMBL document CHEMBL5518178 (Eur J Med Chem, 2024)
